Experimental data from ChEMBL document CHEMBL5506023, “Design, Synthesis, and Evaluation of Dihydropyrimidine Derivatives as Selective PDE1 Inhibitors for the Treatment of Liver Fibrosis” (J Med Chem, 2024).
Calls of active or inactive are those of the source. The calls are words filed in the database; no cut-off is given here.

What was measured:
[1] = biological target: High affinity cGMP-specific 3',5'-cyclic phosphodiesterase 9A (Homo sapiens, UniProt O76083); assay: Inhibition of PDE9A (181 to 506 residues) (unknown origin) using 3H-cGMP as substrate
[2] = biological target: cGMP-dependent 3',5'-cyclic phosphodiesterase (Homo sapiens, UniProt O00408); assay: Inhibition of PDE2A (580 to 919 residues) (unknown origin) using 3H-cGMP as substrate
[3] = biological target: 3',5'-cyclic-AMP phosphodiesterase 4D (Homo sapiens, UniProt Q08499); assay: Inhibition of PDE4D (86 to 413 residues) (unknown origin) using 3H-cAMP as substrate
[4] = biological target: cGMP-specific 3',5'-cyclic phosphodiesterase (Homo sapiens, UniProt O76074); assay: Inhibition of PDE5A (535 to 860 residues) (unknown origin) using 3H-cGMP as substrate
[5] = biological target: cAMP and cAMP-inhibited cGMP 3',5'-cyclic phosphodiesterase 10A (Homo sapiens, UniProt Q9Y233); assay: Inhibition of PDE10A (449 to 770 residues) (unknown origin) using 3H-cAMP as substrate
[6] = Selectivity index, ratio of IC50 for inhibition of PDE1C2 (147 to 531 residues) (unknown origin) using 3H-cGMP as substrate to IC50 for inhibition of PDE3A (679 to 1087 residues) (unknown origin) using 3H-cAMP as substrate
[7] = Selectivity index, ratio of IC50 for inhibition of PDE1C2 (147 to 531 residues) (unknown origin) using 3H-cGMP as substrate to IC50 for inhibition of PDE4D (86 to 413 residues) (unknown origin) using 3H-cAMP as substrate
[8] = Selectivity index, ratio of IC50 for inhibition of PDE1C2 (147 to 531 residues) (unknown origin) using 3H-cGMP as substrate to IC50 for inhibition of PDE5A (535 to 860 residues) (unknown origin) using 3H-cGMP as substrate
[9] = Selectivity index, ratio of IC50 for inhibition of PDE1C2 (147 to 531 residues) (unknown origin) using 3H-cGMP as substrate to IC50 for inhibition of PDE7A (130 to 482 residues) (unknown origin) using 3H-cAMP as substrate
[10] = Selectivity index, ratio of IC50 for inhibition of PDE1C2 (147 to 531 residues) (unknown origin) using 3H-cGMP as substrate to IC50 for inhibition of PDE9A (181 to 506 residues) (unknown origin) using 3H-cGMP as substrate
[11] = Selectivity index, ratio of IC50 for inhibition of PDE1C2 (147 to 531 residues) (unknown origin) using 3H-cGMP as substrate to IC50 for inhibition of PDE10A (449 to 770 residues) (unknown origin) using 3H-cAMP as substrate
[12] = Half life in Sprague-Dawley rat at 2.5 mg/kg,iv administration; type: ADME, organism-based; conditions: in vivo
[13] = AUC (0 to infinity) in Sprague-Dawley rat at 2.5 mg/kg,iv administration; type: ADME, organism-based; conditions: in vivo
[14] = biological target: Voltage-gated inwardly rectifying potassium channel KCNH2 (Homo sapiens, UniProt Q12809); assay: Inhibition of hERG expressed in CHO cells by automated patch clamp electrophysiology analysis; type: toxicity, cell-based
[15] = biological target: T1, Cytochrome P450 1A2 (Homo sapiens, UniProt P05177); assay: Inhibition of CYP1A2 in human liver microsomes in presence of NADPH; type: ADME, Microsome
T1 sequence (P05177 whole entry): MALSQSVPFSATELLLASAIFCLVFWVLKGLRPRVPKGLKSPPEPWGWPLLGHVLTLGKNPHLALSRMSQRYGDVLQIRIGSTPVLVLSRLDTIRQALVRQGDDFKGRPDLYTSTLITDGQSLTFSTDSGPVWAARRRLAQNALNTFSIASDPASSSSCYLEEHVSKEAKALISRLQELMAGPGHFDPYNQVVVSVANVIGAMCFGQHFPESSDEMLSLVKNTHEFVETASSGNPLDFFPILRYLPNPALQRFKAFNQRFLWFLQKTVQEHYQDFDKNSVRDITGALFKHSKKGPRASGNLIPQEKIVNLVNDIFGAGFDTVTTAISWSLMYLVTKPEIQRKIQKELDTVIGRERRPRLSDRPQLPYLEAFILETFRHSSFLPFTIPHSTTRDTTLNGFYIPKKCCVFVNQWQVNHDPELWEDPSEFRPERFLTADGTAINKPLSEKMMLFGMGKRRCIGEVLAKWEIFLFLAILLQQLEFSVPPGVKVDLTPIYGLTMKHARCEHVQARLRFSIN

[16] = biological target: Cytochrome P450 2C9 (Homo sapiens, UniProt P11712); assay: Inhibition of CYP2C9 in human liver microsomes in presence of NADPH; type: ADME, Microsome
[17] = biological target: Cytochrome P450 2D6 (Homo sapiens, UniProt P10635); assay: Inhibition of CYP2D6 in human liver microsomes in presence of NADPH; type: ADME, Microsome
[18] = Acute toxicity in Kunming mouse assessed as lethal dose at po administration for 14 days; type: organism-based; conditions: in vivo, 336 h, time 14 day
[19] = system: Rattus norvegicus; assay: Antifibrotic activity against bile duct ligation induced Sprague-Dawley rat liver fibrosis model assessed as reduction in ALT level at 2.5 mg/kg,ip administrated once daily for 21 days; type: functional, organism-based; conditions: time 21.0 day
[20] = system: Rattus norvegicus; assay: Antifibrotic activity against bile duct ligation induced Sprague-Dawley rat liver fibrosis model assessed as reduction in liver damage at 2.5 mg/kg,ip administrated once daily for 21 days by hematoxylin and eosin staining based analysis; type: functional, organism-based; conditions: time 21.0 day
[21] = system: Rattus norvegicus; assay: Antifibrotic activity against bile duct ligation induced Sprague-Dawley rat liver fibrosis model assessed as reduction in alpha-smooth muscle actin level in liver at 2.5 mg/kg,ip administrated once daily for 21 days by immunofluorescence staining based analysis; type: functional, organism-based; conditions: time 21.0 day
[22] = system: Rattus norvegicus; assay: Antifibrotic activity against bile duct ligation induced Sprague-Dawley rat liver fibrosis model assessed as downregulation of collagen I expression in liver at 2.5 mg/kg,ip administrated once daily for 21 days by Western blotting analysis; type: functional, organism-based; conditions: time 21.0 day
[23] = system: Rattus norvegicus; assay: Antifibrotic activity against bile duct ligation induced Sprague-Dawley rat liver fibrosis model assessed as increase in cGMP level in liver at 2.5 mg/kg,ip administrated once daily for 21 days by ELISA; type: functional, organism-based; conditions: time 21.0 day
[24] = system: LX-2; assay: Antifibrotic activity against TGF-beta induced human LX-2 cell activation assessed as downregulation of collagen-I expression incubated for 48 hrs by Western blotting analysis; type: functional, cell-based
[25] = system: LX-2; assay: Antifibrotic activity against TGF-beta induced human LX-2 cell activation assessed as downregulation of alpha-SMA expression incubated for 48 hrs by Western blotting analysis; type: functional, cell-based
[26] = biological target: cGMP-inhibited 3',5'-cyclic phosphodiesterase 3A (Homo sapiens, UniProt Q14432); assay: Inhibition of PDE3A (679 to 1087 residues) (unknown origin) using 3H-cAMP as substrate at 5000 nM relative to control
[27] = biological target: High affinity 3',5'-cyclic-AMP phosphodiesterase 7A (Homo sapiens, UniProt Q13946); assay: Inhibition of PDE7A (130 to 482 residues) (unknown origin) using 3H-cAMP as substrate at 5000 nM relative to control
High affinity 3',5'-cyclic-AMP phosphodiesterase 7A, sequence (Q13946 whole entry, the tested form may be a part): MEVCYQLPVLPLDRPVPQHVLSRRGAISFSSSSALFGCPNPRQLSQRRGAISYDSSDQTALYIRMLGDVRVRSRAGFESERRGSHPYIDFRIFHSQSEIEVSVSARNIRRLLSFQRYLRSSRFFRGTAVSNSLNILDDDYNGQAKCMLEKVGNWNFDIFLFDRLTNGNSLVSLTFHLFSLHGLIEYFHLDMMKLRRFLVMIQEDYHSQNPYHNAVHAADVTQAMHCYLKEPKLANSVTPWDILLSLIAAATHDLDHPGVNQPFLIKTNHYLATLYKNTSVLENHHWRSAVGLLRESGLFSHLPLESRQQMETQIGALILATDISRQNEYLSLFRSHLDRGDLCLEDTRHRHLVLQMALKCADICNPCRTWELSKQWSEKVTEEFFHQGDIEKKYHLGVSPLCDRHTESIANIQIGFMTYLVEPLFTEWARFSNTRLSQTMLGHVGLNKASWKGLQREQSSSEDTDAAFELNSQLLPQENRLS

High affinity cGMP-specific 3',5'-cyclic phosphodiesterase 9A, sequence (O76083 whole entry, the tested form may be a part): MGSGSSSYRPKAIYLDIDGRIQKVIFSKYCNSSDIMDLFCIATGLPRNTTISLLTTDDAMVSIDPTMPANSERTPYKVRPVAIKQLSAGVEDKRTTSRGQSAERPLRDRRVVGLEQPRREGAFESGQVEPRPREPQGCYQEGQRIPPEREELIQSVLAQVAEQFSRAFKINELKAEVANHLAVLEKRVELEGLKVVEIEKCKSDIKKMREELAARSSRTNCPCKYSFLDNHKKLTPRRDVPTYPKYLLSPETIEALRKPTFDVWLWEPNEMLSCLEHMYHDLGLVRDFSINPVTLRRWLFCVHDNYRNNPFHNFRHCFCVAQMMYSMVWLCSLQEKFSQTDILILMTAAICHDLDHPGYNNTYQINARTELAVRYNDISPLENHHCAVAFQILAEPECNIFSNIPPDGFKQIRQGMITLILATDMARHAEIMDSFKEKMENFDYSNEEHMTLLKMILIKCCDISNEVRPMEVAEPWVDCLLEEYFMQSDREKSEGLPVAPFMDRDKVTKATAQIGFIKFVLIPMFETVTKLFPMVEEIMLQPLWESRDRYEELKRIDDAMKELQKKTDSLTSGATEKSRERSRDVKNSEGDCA
cGMP-dependent 3',5'-cyclic phosphodiesterase, sequence (O00408 whole entry, the tested form may be a part): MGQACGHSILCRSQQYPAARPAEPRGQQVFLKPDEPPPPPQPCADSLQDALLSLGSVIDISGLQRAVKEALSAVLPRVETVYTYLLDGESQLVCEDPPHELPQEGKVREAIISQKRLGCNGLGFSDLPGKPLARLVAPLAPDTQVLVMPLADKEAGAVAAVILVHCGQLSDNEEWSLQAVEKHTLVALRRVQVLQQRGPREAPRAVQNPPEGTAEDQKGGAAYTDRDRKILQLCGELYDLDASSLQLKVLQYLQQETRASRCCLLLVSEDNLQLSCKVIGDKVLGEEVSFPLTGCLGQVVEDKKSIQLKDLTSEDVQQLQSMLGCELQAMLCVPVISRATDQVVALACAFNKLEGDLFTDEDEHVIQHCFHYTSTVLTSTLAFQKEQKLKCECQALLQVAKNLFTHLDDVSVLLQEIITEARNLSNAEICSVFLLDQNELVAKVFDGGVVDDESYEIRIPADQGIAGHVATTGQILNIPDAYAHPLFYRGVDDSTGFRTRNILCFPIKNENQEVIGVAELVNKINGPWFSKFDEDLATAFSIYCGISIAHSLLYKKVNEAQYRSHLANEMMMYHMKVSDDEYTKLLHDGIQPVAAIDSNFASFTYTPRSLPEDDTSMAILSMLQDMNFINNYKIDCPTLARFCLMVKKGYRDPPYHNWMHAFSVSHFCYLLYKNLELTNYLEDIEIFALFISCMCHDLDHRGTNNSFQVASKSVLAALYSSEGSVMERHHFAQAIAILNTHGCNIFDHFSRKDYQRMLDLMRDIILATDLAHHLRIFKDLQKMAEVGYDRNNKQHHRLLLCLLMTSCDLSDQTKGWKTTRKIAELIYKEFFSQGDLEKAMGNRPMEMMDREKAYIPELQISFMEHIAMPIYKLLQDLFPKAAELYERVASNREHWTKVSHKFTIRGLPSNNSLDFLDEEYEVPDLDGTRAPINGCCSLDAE
Voltage-gated inwardly rectifying potassium channel KCNH2, sequence (Q12809 whole entry): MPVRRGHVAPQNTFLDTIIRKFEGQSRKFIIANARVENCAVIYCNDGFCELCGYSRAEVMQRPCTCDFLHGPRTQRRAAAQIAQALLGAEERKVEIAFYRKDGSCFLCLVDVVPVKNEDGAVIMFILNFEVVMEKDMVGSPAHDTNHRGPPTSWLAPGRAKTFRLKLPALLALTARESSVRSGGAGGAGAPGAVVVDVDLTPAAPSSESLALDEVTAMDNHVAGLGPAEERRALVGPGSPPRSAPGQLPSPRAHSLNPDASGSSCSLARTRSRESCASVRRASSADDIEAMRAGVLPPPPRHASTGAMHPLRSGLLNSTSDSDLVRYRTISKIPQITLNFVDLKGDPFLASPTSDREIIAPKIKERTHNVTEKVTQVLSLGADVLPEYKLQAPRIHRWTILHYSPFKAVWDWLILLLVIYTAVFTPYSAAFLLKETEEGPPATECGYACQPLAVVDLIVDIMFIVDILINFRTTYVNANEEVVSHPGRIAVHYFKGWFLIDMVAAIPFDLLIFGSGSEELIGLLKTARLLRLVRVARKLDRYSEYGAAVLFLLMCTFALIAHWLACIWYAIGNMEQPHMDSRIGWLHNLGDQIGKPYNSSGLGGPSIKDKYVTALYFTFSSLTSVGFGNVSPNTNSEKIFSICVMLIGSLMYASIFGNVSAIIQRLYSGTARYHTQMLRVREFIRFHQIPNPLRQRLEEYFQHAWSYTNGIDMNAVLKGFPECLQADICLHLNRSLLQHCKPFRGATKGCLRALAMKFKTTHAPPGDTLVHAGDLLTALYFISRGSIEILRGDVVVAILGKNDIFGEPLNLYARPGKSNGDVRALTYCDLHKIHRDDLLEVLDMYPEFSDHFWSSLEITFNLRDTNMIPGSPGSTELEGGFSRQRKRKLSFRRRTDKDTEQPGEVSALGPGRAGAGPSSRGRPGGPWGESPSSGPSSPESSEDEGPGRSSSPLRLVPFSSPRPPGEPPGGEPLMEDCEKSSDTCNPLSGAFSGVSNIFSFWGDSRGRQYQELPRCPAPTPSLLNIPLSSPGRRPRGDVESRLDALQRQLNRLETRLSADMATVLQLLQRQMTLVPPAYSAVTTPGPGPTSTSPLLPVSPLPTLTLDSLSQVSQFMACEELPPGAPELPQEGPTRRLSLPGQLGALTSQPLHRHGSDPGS
3',5'-cyclic-AMP phosphodiesterase 4D, sequence (Q08499 whole entry, the tested form may be a part): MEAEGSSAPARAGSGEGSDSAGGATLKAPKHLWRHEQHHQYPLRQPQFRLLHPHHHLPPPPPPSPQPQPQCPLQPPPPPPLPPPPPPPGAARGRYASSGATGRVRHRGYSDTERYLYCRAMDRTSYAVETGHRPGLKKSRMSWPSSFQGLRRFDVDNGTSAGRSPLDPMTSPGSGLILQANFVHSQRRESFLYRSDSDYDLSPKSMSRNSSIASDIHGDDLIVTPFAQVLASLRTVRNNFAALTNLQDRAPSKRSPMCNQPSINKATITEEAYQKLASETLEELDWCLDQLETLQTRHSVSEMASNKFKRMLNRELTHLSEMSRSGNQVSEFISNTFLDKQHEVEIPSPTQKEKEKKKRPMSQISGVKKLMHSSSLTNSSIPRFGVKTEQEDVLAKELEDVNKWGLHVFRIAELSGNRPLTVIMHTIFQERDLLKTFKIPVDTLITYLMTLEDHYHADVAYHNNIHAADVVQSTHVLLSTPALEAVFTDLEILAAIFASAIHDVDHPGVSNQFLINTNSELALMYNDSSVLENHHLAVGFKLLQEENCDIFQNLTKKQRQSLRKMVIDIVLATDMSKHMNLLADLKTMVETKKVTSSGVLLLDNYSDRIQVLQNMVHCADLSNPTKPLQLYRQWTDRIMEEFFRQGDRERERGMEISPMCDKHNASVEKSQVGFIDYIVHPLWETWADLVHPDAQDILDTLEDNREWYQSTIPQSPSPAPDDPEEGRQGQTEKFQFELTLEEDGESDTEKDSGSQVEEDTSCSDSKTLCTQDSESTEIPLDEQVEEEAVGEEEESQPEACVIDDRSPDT
Cytochrome P450 2C9, sequence (P11712 whole entry): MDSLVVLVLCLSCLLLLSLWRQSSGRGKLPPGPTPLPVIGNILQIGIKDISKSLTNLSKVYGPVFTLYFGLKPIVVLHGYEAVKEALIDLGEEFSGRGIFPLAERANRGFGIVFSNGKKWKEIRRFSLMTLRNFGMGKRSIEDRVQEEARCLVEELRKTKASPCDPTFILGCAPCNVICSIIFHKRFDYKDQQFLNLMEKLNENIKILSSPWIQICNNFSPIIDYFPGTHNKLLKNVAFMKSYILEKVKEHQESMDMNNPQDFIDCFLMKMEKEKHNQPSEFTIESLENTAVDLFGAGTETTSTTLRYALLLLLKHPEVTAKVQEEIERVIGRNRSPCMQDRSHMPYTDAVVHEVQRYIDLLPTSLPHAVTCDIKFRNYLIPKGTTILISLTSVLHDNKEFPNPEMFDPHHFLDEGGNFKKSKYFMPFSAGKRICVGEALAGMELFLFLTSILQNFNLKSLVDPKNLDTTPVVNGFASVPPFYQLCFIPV
Cytochrome P450 2D6, sequence (P10635 whole entry): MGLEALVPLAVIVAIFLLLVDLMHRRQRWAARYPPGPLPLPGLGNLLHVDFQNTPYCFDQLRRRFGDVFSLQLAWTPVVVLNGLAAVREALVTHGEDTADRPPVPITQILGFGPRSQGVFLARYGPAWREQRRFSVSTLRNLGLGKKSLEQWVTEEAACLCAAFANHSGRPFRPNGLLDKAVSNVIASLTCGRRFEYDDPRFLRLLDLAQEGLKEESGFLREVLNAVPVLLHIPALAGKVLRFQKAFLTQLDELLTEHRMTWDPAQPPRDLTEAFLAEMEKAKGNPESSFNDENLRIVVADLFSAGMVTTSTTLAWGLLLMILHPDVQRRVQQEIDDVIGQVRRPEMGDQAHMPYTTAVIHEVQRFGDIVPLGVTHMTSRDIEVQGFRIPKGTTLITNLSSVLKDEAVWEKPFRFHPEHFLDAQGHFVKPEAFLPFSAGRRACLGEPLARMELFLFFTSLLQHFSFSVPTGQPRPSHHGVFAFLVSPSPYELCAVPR

`CC1=C(C(=O)OCC2CCCCC2)C(c2ccc(OC(F)F)c(OCC3CC3)c2)N(C(=O)SCc2ccccc2)C(=O)N1` (configuration not stated) showed an IC50 [1] of 2100 nM, an IC50 [2] of 3540 nM and an IC50 [3] of 2050 nM. It also gave an IC50 [4] of 1680 nM, an IC50 [5] of 597 nM and a Ratio IC50 [6] greater than 500. It also gave a Ratio IC50 [7] of 205, a Ratio IC50 [8] of 168 and a Ratio IC50 [9] greater than 500. It also gave a Ratio IC50 [10] of 210, a Ratio IC50 [11] of 60 and a half-life [12] of 7.51 h. For the same compound, the AUC(0-inf) [13] was 6320 ng·h/mL, the IC50 [14] was greater than 40000 nM and the IC50 [15] was greater than 25000 nM. The IC50 [16] was greater than 25000 nM, the IC50 [17] was greater than 25000 nM and the LD [18] was greater than 1500 mg/kg. For the same compound, the Activity [19] was “Active”, the Activity [20] was “Active” and the Activity [21] was “Active”. For the same compound, the Activity [22] was “Active”, the Activity [23] was “inactive” and the Activity [24] was “Dose-Dependent Effect”. For the same compound, the Activity [25] was “Dose-Dependent Effect”, the inhibition [26] was less than 50% and the inhibition [27] was less than 50%.
